US10428347B2, “Herbicide-detoxifying enzymes and uses thereof” (priority 2017, dated 2019)

What was measured:
Assay type in all cases: biochemical
[1] = Absorbance spectra assay of mecoprop degradation by ChD or CAC; conditions: mecoprop 200 mg/L alone (no enzyme), 50 mM HEPES pH 7, one hour at 37° C.
Procedure: (§1) Small scale (1 mL) assays were performed to evaluate the ability of ChD and CAC to degrade MCPA-4 amine or mecoprop.
(§2) MCPA-4 amine and mecoprop have absorbance maxima (Amax) at approximately 230 and 280 nm. […] MCPA-4 amine or mecoprop end product generation is directly proportional to the degradation MCPA-4 amine or mecoprop, respectively.

[2] = Absorbance spectra assay of MCPA-4 amine degradation by ChD or CAC; conditions: MCPA-4 amine 200 mg/L alone (no enzyme), 50 mM HEPES pH 7, one hour at 37° C.
Procedure: as §1, §2

[3] = Sorbitol dehydrogenase enzyme activity (NADH production at 340 nm); conditions: for enzyme activity level: NAD^+ and sorbitol, absorbance readings at 340 nm at 5 min after the start of the reaction; for regeneration of NADH (NADH production, 0-36 min): vs no enzyme control and background A64
From the text: To determine enzyme activity for sorbitol dehydrogenase in the production samples, reactions were set up with NAD^+, sorbitol and the sorbitol dehydrogenase enzyme collected in supernatant derived from the Bacillus subtilis A64 cultures. Absorbance at 340 nm was monitored with a BioTek SYNERGY HTX plate reader (BioTek Industries Inc.). […] The extinction coefficient of NADH at 340 nm (6220 M^−1 cm^−1) was used to estimate the enzyme activity of the sorbitol dehydrogenase enzyme. The enzyme activity was compared to commercially available sorbitol dehydrogenase enzyme produced from sheep liver (S-3764, Sigma-Aldrich).
NADH production was measured and reported as an average of 7 measurements and reported over a time series (0-36 min.) for the sorbitol dehydrogenase GutB (SDH GutB), the sorbitol dehydrogenase from sheep liver (SDH control) and compared to the A64 filtrate and no enzyme treatments both used as negative controls in the enzyme assay.

Cc1cc(Cl)ccc1OC(C)C(=O)[O-].[K+] (racemic) [Mecoprop, Potassium (RS)-2-(2-methyl-4-chlorophenoxy)propionate, reference compound]
Absorbance Maxima at Wavelength (λ) 230 [1]: 1.723
Absorbance Maxima at Wavelength (λ) 252 [1]: 0.2562
Absorbance Maxima at Wavelength (λ) 280 [1]: 1.214

Cc1cc(Cl)ccc1OCC(=O)O [MCPA-4-Amine, 2-methyl-4-chlorophenoxyacetic acid, reference compound]
Absorbance Maxima at Wavelength (λ) 230 [2]: 1.739
Absorbance Maxima at Wavelength (λ) 252 [2]: 0.2573
Absorbance Maxima at Wavelength (λ) 280 [2]: 1.506

B1: GutB sorbitol dehydrogenase: sorbitol dehydrogenase from Bacillus subtilis strain 168, SEQ ID NO: 288, cofactor-regenerating enzyme (protein, listed as Bacillus subtilis)
chain: MTHTVPQNMKAAVMHNTREIKIETLPVPDINHDEVLIKVMAVGICGSDLHYYTNGRIGNYVVEKPFILGHECAGEIAAVGSSVDQFKVGDRVAVEPGVTCGRCEACKEGRYNLCPDVQFLATPPVDGAFVQYIKMRQDFVFLIPDSLSYEEAALIEPFSVGIHAAARTKLQPGSTIAIMGMGPVGLMAVAAAKAFGAGTIIVTDLEPLRLEAAKKMGATHIINIREQDALEEIKTITNDRGVDVAWETAGNPAALQSALASVRRGGKLAIVGLPSQNEIPLNVPFIADNEIDIYGIFRYANTYPKGIEFLASGIVDTKHLVTDQYSLEQTQDAMERALQFKNECLKVMVYPNR
enzyme activity level [3]: 207 U/mL
regeneration of NADH (NADH production, 0-36 min) [3]: sufficient ability to reduce NAD to NADH

B2: SDH control: commercially available sorbitol dehydrogenase enzyme produced from sheep liver (S-3764, Sigma-Aldrich) (protein, UniProt P07846 1-354, looked up)
Sorbitol dehydrogenase: AKPAAENLSLVVHGPGDLRLENYPIPEPGPNEVLLKMHSVGICGSDVHYWQGRIGDFVVKKPMVLGHEASGTVVKVGSLVRHLQPGDRVAIQPGAPRQTDEFCKIGRYNLSPTIFFCATPPDDGNLCRFYKHNANFCYKLPDNVTFEEGALIEPLSVGIHACRRAGVTLGNKVLVCGAGPIGLVNLLAAKAMGAAQVVVTDLSASRLSKAKEVGADFILEISNESPEEIAKKVEGLLGSKPEVTIECTGVETSIQAGIYATHSGGTLVLVGLGSEMTSVPLVHAATREVDIKGVFRYCNTWPMAISMLASKSVNVKPLVTHRFPLEKALEAFETSKKGLGLKVMIKCDPSDQNP
enzyme activity level [3]: 1447 U/mL
regeneration of NADH (NADH production, 0-36 min) [3]: greater regeneration of NADH
